Test results taken from US8481696B2, “Glycosylated glycopeptide antibiotic derivatives” (Shionogi & Co., Ltd., priority 2007, dated 2013).
≈ marks a conversion by molar mass, not a printed value. Like-named read-outs stand apart in the source and are kept apart here.

Legend:
E. faecalis SR7914 = experiment: In vitro measurement of antibacterial activity (MIC, liquid dilution method); assay type: cell-based; conditions: E. faecalis SR7914, vancomycin-resistant Enterococcus (VRE VanA); cation-adjusted Muller Hinton liquid medium; read-out: MIC (minimum growth inhibition concentration)
Method: (§1) Some of the present compounds were measured for a minimum growth inhibition concentration (MIC) by a small amount of liquid dilution method using a cation-adjusted Muller Hinton liquid medium well-known to a person skilled in the art.

E. faecium SR7940 = experiment: as above; assay type: cell-based; conditions: Enterococcus faecium
Method: as §1

[1] = E. faecium SR7940, cation-adjusted Muller Hinton liquid medium, read-out: MIC (minimum growth inhibition concentration)

Row | SMILES | MIC (E. faecalis SR7914) | MIC (E. faecium SR7940; [1]) | MIC (E. faecium SR7940; SR7940, read-out: MIC (minimum growth inhibition concentration))
1 | CN[C@H](CC(C)C)C(=O)N[C@H]1C(=O)N[C@@H](CC(N)=O)C(=O)N[C@H]2C(=O)N[C@H]3C(=O)N[C@H](C(=O)N[C@@H](C(=O)O)c4cc(O)cc(O)c4-c4cc3ccc4O)[C@H](O[C@H]3C[C@](C)(N)[C@@H](O)[C@H](C)O3)c3ccc(c(Cl)c3)Oc3cc2cc(c3O[C@@H]2O[C@H](CO)[C@@H](O[C@@H]3O[C@H](CNCc4ccc(-c5ccc(OC)cc5)s4)[C@H](O)[C@H](O)[C@H]3O)[C@H](O)[C@H]2O)Oc2ccc(cc2Cl)[C@H]1O [Example 83] | 2 to 4 µg/mL (≈ 1.1 to 2.21 µM) | 1 to 4 µg/mL (≈ 0.552 to 2.21 µM) | 
2 | CN[C@H](CC(C)C)C(=O)NC1C(=O)NC(CC(N)=O)C(=O)N[C@H]2C(=O)NC3C(=O)N[C@H](C(=O)N[C@H](C(=O)O)c4cc(O)cc(O)c4-c4cc3ccc4O)[C@H](OC3C[C@](C)(N)[C@@H](O)[C@H](C)O3)c3ccc(c(Cl)c3)Oc3cc2cc(c3O[C@@H]2O[C@H](CO)[C@@H](O[C@@H]3O[C@H](CNCc4ccc(-c5cccc(F)c5)s4)[C@H](O)[C@H](O)[C@H]3O)[C@H](O)[C@H]2O)Oc2ccc(cc2Cl)[C@H]1O (stereo partly drawn) [Example 43] | 2 to 4 µg/mL (≈ 1.11 to 2.22 µM) | 1 to 4 µg/mL (≈ 0.555 to 2.22 µM) | 
3 | CN[C@H](CC(C)C)C(=O)N[C@H]1C(=O)N[C@@H](CC(N)=O)C(=O)N[C@H]2C(=O)N[C@H]3C(=O)N[C@H](C(=O)N[C@@H](C(=O)O)c4cc(O)cc(O)c4-c4cc3ccc4O)[C@H](OC3C[C@](C)(N)[C@@H](O)[C@H](C)O3)c3ccc(c(Cl)c3)Oc3cc2cc(c3O[C@@H]2O[C@H](CO)[C@@H](O[C@@H]3O[C@H](CNCc4ccc(-c5cccs5)s4)[C@H](O)[C@H](O)[C@H]3O)[C@H](O)[C@H]2O)Oc2ccc(cc2Cl)[C@H]1O (stereo partly drawn) [Example 75] | 2 to 4 µg/mL (≈ 1.12 to 2.24 µM) | 1 to 4 µg/mL (≈ 0.559 to 2.24 µM) | 
4 | CN[C@H](CC(C)C)C(=O)NC1C(=O)N[C@@H](CC(N)=O)C(=O)N[C@H]2C(=O)N[C@H]3C(=O)N[C@H](C(=O)N[C@@H](C(=O)O)c4cc(O)cc(O)c4-c4cc3ccc4O)[C@H](O[C@H]3C[C@](C)(NCc4cccnc4)[C@@H](O)[C@H](C)O3)c3ccc(c(Cl)c3)Oc3cc2cc(c3O[C@@H]2O[C@H](CO)[C@@H](O[C@@H]3O[C@H](CNCc4cccc(NC(=O)c5cccc(OC(F)(F)F)c5)c4)[C@H](O)[C@H](O)[C@H]3O)[C@H](O)[C@H]2O)Oc2ccc(cc2Cl)[C@H]1O (stereo partly drawn) [Example 31] | 2 to 4 µg/mL (≈ 1 to 2.01 µM) | 1 to 4 µg/mL (≈ 0.501 to 2.01 µM) | 
5 | CN[C@H](CC(C)C)C(=O)NC1C(=O)NC(CC(N)=O)C(=O)N[C@H]2C(=O)NC3C(=O)N[C@H](C(=O)NC(C(=O)O)c4cc(O)cc(O)c4-c4cc3ccc4O)[C@H](O[C@H]3C[C@](C)(N)[C@@H](O)[C@H](C)O3)c3ccc(c(Cl)c3)Oc3cc2cc(c3O[C@@H]2O[C@H](CO)[C@@H](O[C@@H]3O[C@H](CNCc4ccc(-c5ccc(F)c(F)c5)nc4)[C@H](O)[C@H](O)[C@H]3O)[C@H](O)[C@H]2O)Oc2ccc(cc2Cl)[C@H]1O (stereo partly drawn) [Example 88] | 2 to 4 µg/mL (≈ 1.1 to 2.21 µM) | 1 to 4 µg/mL (≈ 0.551 to 2.21 µM) | 
6 | CN[C@H](CC(C)C)C(=O)NC1C(=O)N[C@@H](CC(N)=O)C(=O)N[C@H]2C(=O)N[C@H]3C(=O)N[C@H](C(=O)N[C@@H](C(=O)O)c4cc(O)cc(O)c4-c4cc3ccc4O)[C@H](OC3C[C@](C)(N)[C@@H](O)[C@H](C)O3)c3ccc(c(Cl)c3)Oc3cc2cc(c3O[C@@H]2O[C@H](CO)[C@@H](O[C@@H]3O[C@H](CNCc4ccc(Oc5ccc(F)cc5)cc4)[C@H](O)[C@H](O)[C@H]3O)[C@H](O)[C@H]2O)Oc2ccc(cc2Cl)[C@H]1O (stereo partly drawn) [Example 50] | 2 to 4 µg/mL (≈ 1.1 to 2.21 µM) | 1 to 4 µg/mL (≈ 0.552 to 2.21 µM) | 
7 | CN[C@H](CC(C)C)C(=O)N[C@H]1C(=O)N[C@@H](CC(N)=O)C(=O)N[C@H]2C(=O)N[C@H]3C(=O)N[C@H](C(=O)N[C@@H](C(=O)O)c4cc(O)cc(O)c4-c4cc3ccc4O)[C@H](OC3C[C@](C)(N)[C@@H](O)[C@H](C)O3)c3ccc(c(Cl)c3)Oc3cc2cc(c3O[C@@H]2O[C@H](CO)[C@@H](O[C@@H]3O[C@H](CNCc4ccc(C(=O)NCc5ccc(Cl)c(Cl)c5)cc4)[C@H](O)[C@H](O)[C@H]3O)[C@H](O)[C@H]2O)Oc2ccc(cc2Cl)[C@H]1O (stereo partly drawn) [Example 69] | 2 to 4 µg/mL (≈ 1.05 to 2.1 µM) | 1 to 4 µg/mL (≈ 0.526 to 2.1 µM) | 
8 | CN[C@H](CC(C)C)C(=O)NC1C(=O)N[C@@H](CC(N)=O)C(=O)N[C@H]2C(=O)N[C@H]3C(=O)N[C@H](C(=O)N[C@@H](C(=O)O)c4cc(O)cc(O)c4-c4cc3ccc4O)[C@H](O[C@H]3C[C@](C)(N)[C@@H](O)[C@H](C)O3)c3ccc(c(Cl)c3)Oc3cc2cc(c3O[C@@H]2O[C@H](CO)[C@@H](O[C@@H]3O[C@H](CNCc4ccc(-c5ccc(Cl)cc5)s4)[C@H](O)[C@H](O)[C@H]3O)[C@H](O)[C@H]2O)Oc2ccc(cc2Cl)[C@H]1O (stereo partly drawn) [Example 13] | 2 to 4 µg/mL (≈ 1.1 to 2.2 µM) | 1 to 4 µg/mL (≈ 0.55 to 2.2 µM) | 
9 | CN[C@H](CC(C)C)C(=O)NC1C(=O)N[C@@H](CC(N)=O)C(=O)N[C@H]2C(=O)N[C@H]3C(=O)N[C@H](C(=O)N[C@@H](C(=O)O)c4cc(O)cc(O)c4-c4cc3ccc4O)[C@H](O[C@H]3C[C@](C)(NCc4c[nH]cn4)[C@@H](O)[C@H](C)O3)c3ccc(c(Cl)c3)Oc3cc2cc(c3O[C@@H]2O[C@H](CO)[C@@H](O[C@@H]3O[C@H](CNCc4cccc(NC(=O)c5cccc(OC(F)(F)F)c5)c4)[C@H](O)[C@H](O)[C@H]3O)[C@H](O)[C@H]2O)Oc2ccc(cc2Cl)[C@H]1O (stereo partly drawn) [Example 30] | 2 to 4 µg/mL (≈ 1.01 to 2.02 µM) | 1 to 4 µg/mL (≈ 0.504 to 2.02 µM) | 
10 | CN[C@H](CC(C)C)C(=O)N[C@H]1C(=O)N[C@@H](CC(N)=O)C(=O)N[C@H]2C(=O)N[C@H]3C(=O)NC(C(=O)N[C@@H](C(=O)O)c4cc(O)cc(O)c4-c4cc3ccc4O)[C@H](O)c3ccc(c(Cl)c3)Oc3cc2cc(c3OC2O[C@H](CO)[C@@H](O)[C@H](O)[C@H]2OC2C[C@](C)(N)[C@H](O)[C@H](C)O2)Oc2ccc(cc2Cl)[C@H]1O (stereo partly drawn) [vancomycin, reference compound] |  |  | > 64 µg/mL
11 | CN[C@H](CC(C)C)C(=O)NC1C(=O)NC(CC(N)=O)C(=O)N[C@H]2C(=O)NC3C(=O)N[C@H](C(=O)N[C@H](C(=O)O)c4cc(O)cc(O)c4-c4cc3ccc4O)[C@H](O[C@H]3C[C@](C)(N)[C@@H](O)[C@H](C)O3)c3ccc(c(Cl)c3)Oc3cc2cc(c3O[C@@H]2O[C@H](CO)[C@@H](O[C@@H]3O[C@H](CNCCn4ccc(NC(=O)c5ccc(OC(F)(F)F)cc5)nc4=O)[C@H](O)[C@H](O)[C@H]3O)[C@H](O)[C@H]2O)Oc2ccc(cc2Cl)[C@H]1O (stereo partly drawn) [Example 11] | 2 to 4 µg/mL (≈ 1.03 to 2.07 µM) | 1 to 4 µg/mL (≈ 0.517 to 2.07 µM) | 
12 | CN[C@H](CC(C)C)C(=O)N[C@H]1C(=O)N[C@@H](CC(N)=O)C(=O)N[C@H]2C(=O)N[C@H]3C(=O)N[C@H](C(=O)N[C@@H](C(=O)O)c4cc(O)cc(O)c4-c4cc3ccc4O)[C@H](OC3C[C@](C)(N)[C@@H](O)[C@H](C)O3)c3ccc(c(Cl)c3)Oc3cc2cc(c3O[C@@H]2O[C@H](CO)[C@@H](O[C@@H]3O[C@H](CNCc4ccc(-n5cccc5)cc4)[C@H](O)[C@H](O)[C@H]3O)[C@H](O)[C@H]2O)Oc2ccc(cc2Cl)[C@H]1O (stereo partly drawn) [Example 65] | 2 to 4 µg/mL (≈ 1.13 to 2.27 µM) | 1 to 4 µg/mL (≈ 0.566 to 2.27 µM) | 
13 | CN[C@H](CC(C)C)C(=O)NC1C(=O)NC(CC(N)=O)C(=O)N[C@H]2C(=O)NC3C(=O)N[C@H](C(=O)N[C@H](C(=O)O)c4cc(O)cc(O)c4-c4cc3ccc4O)[C@H](OC3C[C@](C)(N)[C@@H](O)[C@H](C)O3)c3ccc(c(Cl)c3)Oc3cc2cc(c3O[C@@H]2O[C@H](CO)[C@@H](O[C@@H]3O[C@H](CNCc4ccc(-c5ccc(Cl)cc5)nc4)[C@H](O)[C@H](O)[C@H]3O)[C@H](O)[C@H]2O)Oc2ccc(cc2Cl)[C@H]1O (stereo partly drawn) [Example 45] | 2 to 4 µg/mL (≈ 1.1 to 2.21 µM) | 1 to 4 µg/mL (≈ 0.552 to 2.21 µM) | 
14 | CN[C@H](CC(C)C)C(=O)N[C@H]1C(=O)N[C@@H](CC(N)=O)C(=O)N[C@H]2C(=O)N[C@H]3C(=O)N[C@H](C(=O)N[C@@H](C(=O)O)c4cc(O)cc(O)c4-c4cc3ccc4O)[C@H](O[C@H]3C[C@](C)(N)[C@@H](O)[C@H](C)O3)c3ccc(c(Cl)c3)Oc3cc2cc(c3O[C@@H]2O[C@H](CO)[C@@H](O[C@@H]3O[C@H](CNCc4ccc(-c5cc(F)cc(F)c5)s4)[C@H](O)[C@H](O)[C@H]3O)[C@H](O)[C@H]2O)Oc2ccc(cc2Cl)[C@H]1O [Example 82] | 2 to 4 µg/mL (≈ 1.1 to 2.2 µM) | 1 to 4 µg/mL (≈ 0.55 to 2.2 µM) | 
